In patent publication US8148391B2 (Cephalon, Inc., priority 2006, dated 2012):
Read-outs that look alike come from different tables or passages of the source.

Key:
[1] = target: T1, c-Met (cytoplasmic domain) (Homo sapiens, UniProt P08581); assay: c-Met Kinase Assay (same methods as for ALK, with modifications); type: biochemical
T1 construct: 10 ng/mL c-Met (cytoplasmic domain, Invitrogen Corporation #PV3143); purchased Invitrogen Corporation PV3143
Outline: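 Steps: coat wells with PLC-γ (10 μg/mL, Tris-buffered saline); add 10 ng/mL c-Met cytoplasmic domain to initiate; incubate 15 min, 37° C; detect phosphoproduct via Eu-N1 PT66 antibody.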

[2] = target: T2, baculovirus-expressed ALK (Homo sapiens, UniProt Q9UM73); assay: ALK Kinase Assay (ELISA-type, time-resolved fluorescence); type: biochemical
T2 construct: host or cells: baculovirus expression system
T2 sequence (Q9UM73 19-1620): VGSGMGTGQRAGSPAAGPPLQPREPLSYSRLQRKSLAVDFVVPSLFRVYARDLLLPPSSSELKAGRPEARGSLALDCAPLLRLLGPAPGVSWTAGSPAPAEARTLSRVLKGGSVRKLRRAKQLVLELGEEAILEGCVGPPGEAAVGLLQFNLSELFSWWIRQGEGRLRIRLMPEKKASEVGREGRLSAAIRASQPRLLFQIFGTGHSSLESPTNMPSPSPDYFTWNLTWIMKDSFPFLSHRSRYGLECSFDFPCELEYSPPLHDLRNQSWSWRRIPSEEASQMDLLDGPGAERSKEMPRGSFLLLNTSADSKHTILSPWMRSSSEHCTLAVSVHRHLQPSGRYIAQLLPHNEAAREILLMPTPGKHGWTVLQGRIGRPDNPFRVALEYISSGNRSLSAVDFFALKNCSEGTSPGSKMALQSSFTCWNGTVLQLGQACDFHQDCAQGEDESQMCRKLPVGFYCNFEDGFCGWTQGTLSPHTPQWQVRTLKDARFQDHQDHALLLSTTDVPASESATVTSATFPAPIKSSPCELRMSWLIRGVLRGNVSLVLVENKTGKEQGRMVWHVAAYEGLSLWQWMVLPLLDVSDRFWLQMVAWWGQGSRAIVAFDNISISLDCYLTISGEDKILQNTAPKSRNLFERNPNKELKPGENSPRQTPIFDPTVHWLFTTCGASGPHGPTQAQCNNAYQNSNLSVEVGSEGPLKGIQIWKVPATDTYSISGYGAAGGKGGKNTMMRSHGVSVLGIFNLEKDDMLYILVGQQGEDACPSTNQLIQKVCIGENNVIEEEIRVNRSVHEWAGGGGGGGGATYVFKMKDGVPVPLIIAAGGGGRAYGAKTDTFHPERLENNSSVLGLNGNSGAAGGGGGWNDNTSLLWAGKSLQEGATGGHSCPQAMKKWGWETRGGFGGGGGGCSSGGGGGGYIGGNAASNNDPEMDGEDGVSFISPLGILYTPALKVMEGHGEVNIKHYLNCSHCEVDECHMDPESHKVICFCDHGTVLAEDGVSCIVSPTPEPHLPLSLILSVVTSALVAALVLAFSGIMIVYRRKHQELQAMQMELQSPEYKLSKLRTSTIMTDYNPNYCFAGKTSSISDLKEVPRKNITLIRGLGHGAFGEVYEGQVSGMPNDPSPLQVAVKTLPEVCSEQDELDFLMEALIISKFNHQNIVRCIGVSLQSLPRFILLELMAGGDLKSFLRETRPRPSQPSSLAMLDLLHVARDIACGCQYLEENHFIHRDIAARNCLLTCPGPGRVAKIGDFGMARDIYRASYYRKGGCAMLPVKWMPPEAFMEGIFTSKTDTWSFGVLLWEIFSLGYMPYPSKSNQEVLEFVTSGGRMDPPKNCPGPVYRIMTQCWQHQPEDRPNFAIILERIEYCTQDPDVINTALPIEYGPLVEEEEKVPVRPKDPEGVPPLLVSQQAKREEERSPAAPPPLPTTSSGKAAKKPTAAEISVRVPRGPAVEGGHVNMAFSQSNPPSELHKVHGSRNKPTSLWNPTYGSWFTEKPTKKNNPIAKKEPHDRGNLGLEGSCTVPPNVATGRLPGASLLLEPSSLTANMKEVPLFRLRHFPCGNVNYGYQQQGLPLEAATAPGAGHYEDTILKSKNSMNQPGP
Outline: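 Wells were coated with phospholipase C-γ at 10 μg/mL in Tris-buffered saline. Adding 30 ng/ml enzyme started the reaction, which ran at 37° C for 15 minutes before Eu-N1 PT66 antibody detection. Percent inhibition versus log10 concentration gave IC50 by variable-slope fit.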

[3] = 1 μM ATP (Km level), read-out: cMet Activity (c-Met Kinase Inhibition, IC50)
[4] = 1 μM ATP (Km level), read-out: ALK Activity (ALK Kinase Inhibition, IC50)
[5] = c-Met kinase inhibition, 1 μM ATP (Km level), read-out: cMet Activity
[6] = ALK kinase inhibition, 1 μM ATP (Km level), read-out: ALK Activity
[7] = c-Met kinase inhibition, 1 μM ATP, read-out: cMet Activity
[8] = ALK kinase inhibition, 1 μM ATP, read-out: ALK Activity
[9] = 1 μM ATP (Km level), 10 ng/mL c-Met, read-out: cMet Activity (c-Met kinase inhibition, IC50 class)
[10] = 1 μM ATP (Km level), 30 ng/ml ALK, 37° C., 15 minutes, read-out: ALK Activity (ALK kinase inhibition, IC50 class)

T1 sequence (P08581 956-1390 limits assumed): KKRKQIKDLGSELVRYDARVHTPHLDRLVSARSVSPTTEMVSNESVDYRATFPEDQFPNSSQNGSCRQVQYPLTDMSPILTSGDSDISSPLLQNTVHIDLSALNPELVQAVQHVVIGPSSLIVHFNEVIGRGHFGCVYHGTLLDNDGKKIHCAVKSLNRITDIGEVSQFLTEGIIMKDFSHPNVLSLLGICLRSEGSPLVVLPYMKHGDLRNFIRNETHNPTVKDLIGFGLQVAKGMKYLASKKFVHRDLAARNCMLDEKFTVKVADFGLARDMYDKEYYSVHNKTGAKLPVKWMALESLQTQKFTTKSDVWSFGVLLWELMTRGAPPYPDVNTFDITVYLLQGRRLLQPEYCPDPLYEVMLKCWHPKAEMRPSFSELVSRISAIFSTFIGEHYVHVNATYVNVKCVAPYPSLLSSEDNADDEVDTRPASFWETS

Row | Molecule | IC50 [1, 3] | IC50 [2, 4] | IC50 [1, 5] | IC50 [2, 6] | other results
1 | CC(C)N1C(=O)CCCc2cc(Nc3ncc(Cl)c(N[C@@H]4CCCC[C@H]4NS(C)(=O)=O)n3)ccc21 [Example 667, N-{(1R,2R)-2-[5-Chloro-2-(1-isopropyl-2-oxo-2,3,4,5-tetrahydro-1H-benzo[b]azepin-7-ylamino)-pyrimidin-4-ylamino]-cyclohexyl}-methanesulfonamide] | 100 to 1000 nM | < 100 nM | – | – | –
2 | CS(=O)(=O)N[C@@H]1CCCC[C@H]1Nc1nc(Nc2ccc3c(c2)C2CCC3CN(S(C)(=O)=O)C2)ncc1Cl (stereo partly drawn) [Example 294, N-{(1R,2R)-2-[5-Chloro-2-(10-methanesulfonyl-10-aza-tricyclo[6.3.2.0*2,7*]trideca-2,4,6-trien-4-ylamino)-pyrimidin-4-ylamino]-cyclohexyl}-methanesulfonamide] | – | – | 100 to 1000 nM | < 100 nM | –
3 | CCS(=O)(=O)N[C@@H]1CCCC[C@H]1Nc1nc(Nc2ccc3c(c2)CCN(CCOC)CC3)ncc1Cl [Example 453, Ethanesulfonic acid ((1R,2R)-2-{5-chloro-2-[3-(2-methoxy-ethyl)-2,3,4,5-tetrahydro-1H-benzo[d]azepin-7-ylamino]-pyrimidin-4-ylamino}-cyclohexyl)-amide] | – | – | 1000 to 10000 nM | < 100 nM | –
4 | COc1cc2c(cc1Nc1ncc(Cl)c(N[C@H]3[C@@H](C(N)=O)[C@@H]4C=C[C@H]3C4)n1)CCN(CC(F)F)CC2 [Example 806, (1S,2S,3R,4R)-3-{5-Chloro-2-[3-(2,2-difluoro-ethyl)-8-methoxy-2,3,4,5-tetrahydro-1H-benzo[d]azepin-7-ylamino]-pyrimidin-4-ylamino}-bicyclo[2.2.1]hept-5-ene-2-carboxylic acid amide] | > 10000 nM | < 100 nM | – | – | –
5 | CCN1CC(=O)Nc2cc(Nc3ncc(Cl)c(Nc4c(C)csc4C(=O)NC)n3)ccc2C1 [Example 1865, 3-[5-Chloro-2-(4-ethyl-2-oxo-2,3,4,5-tetrahydro-1H-benzo[e][1,4]diazepin-8-ylamino)-pyrimidin-4-ylamino]-4-methyl-thiophene-2-carboxylic acid methylamide] | – | – | – | – | IC50 [1, 7]: 100 to 1000 nM; IC50 [2, 8]: 100 to 1000 nM
6 | COc1cc2c(cc1Nc1ncc(Cl)c(N[C@H]3[C@@H](C(N)=O)[C@@H]4C=C[C@H]3C4)n1)CCN(CCS(C)(=O)=O)CC2 [Example 1128, (1S,2S,3R,4R)-3-{5-Chloro-2-[3-(2-methanesulfonyl-ethyl)-8-methoxy-2,3,4,5-tetrahydro-1H-benzo[d]azepin-7-ylamino]-pyrimidin-4-ylamino}-bicyclo[2.2.1]hept-5-ene-2-carboxylic acid amide] | – | – | – | – | IC50 [1, 9]: > 10000 nM; IC50 [2, 10]: < 100 nM
7 | CCN1C(=O)C(NC(C)=O)CC(C)(C)c2ccc(Nc3ncc(Cl)c(Nc4c(F)cccc4C(=O)NC)n3)cc21 (stereo not shown) [Example 1643, 2-[2-(3-Acetylamino-1-ethyl-5,5-dimethyl-2-oxo-2,3,4,5-tetrahydro-1H-benzo[b]azepin-8-ylamino)-5-chloro-pyrimidin-4-ylamino]-3-fluoro-N-methyl-benzamide] | – | – | – | – | IC50 [1, 7]: < 100 nM; IC50 [2, 8]: 100 to 1000 nM
8 | COc1c(Nc2ncc(Cl)c(Nc3ccccc3S(=O)(=O)C(C)C)n2)ccc2c1CCC(N1CCN(C)CC1)CC2 (racemic) [Example 914, 5-Chloro-N*2*-[1-methoxy-7-(4-methyl-piperazin-1-yl)-6,7,8,9-tetrahydro-5H-benzocyclohepten-2-yl]-N*4*-[2-(propane-2-sulfonyl)-phenyl]-pyrimidine-2,4-diamine] | 1000 to 10000 nM | < 100 nM | – | – | –
9 | COc1c(Nc2ncc(Cl)c(Nc3ccccc3S(=O)(=O)N3CC[C@H](O)C3)n2)ccc2c1CCCC(NCCO)C2 (stereo partly drawn) [Example 963, (S)-1-(2-{5-Chloro-2-[6-(2-hydroxy-ethylamino)-1-methoxy-6,7,8,9-tetrahydro-5H-benzocyclohepten-2-ylamino]-pyrimidin-4-ylamino}-benzenesulfonyl)-pyrrolidin-3-ol] | 1000 to 10000 nM | < 100 nM | – | – | –
10 | CNC(=O)c1cccc(F)c1Nc1nc(Nc2ccc3c(c2)-n2c(C)cnc2CCC3)ncc1Cl [Example 1843, 2-[5-Chloro-2-(1-methyl-5,6-dihydro-4H-3,10b-diaza-benzo[e]azulen-9-ylamino)-pyrimidin-4-ylamino]-3-fluoro-N-methyl-benzamide] | – | – | – | – | IC50 [1, 7]: 1000 to 10000 nM; IC50 [2, 8]: 100 to 1000 nM
11 | Cc1cccc(C(=O)NCC#N)c1Nc1nc(Nc2ccc3c(c2)CCCC(=O)N3C)ncc1Cl [Example 1039, 2-[5-Chloro-2-(1-methyl-2-oxo-2,3,4,5-tetrahydro-1H-benzo[b]azepin-7-ylamino)-pyrimidin-4-ylamino]-N-cyanomethyl-3-methyl-benzamide] | – | – | – | – | IC50 [1, 9]: 100 to 1000 nM; IC50 [2, 10]: 1000 to 10000 nM
12 | COc1cc2c(cc1Nc1ncc(Cl)c(Nc3ccccc3S(=O)(=O)N3CCOCC3)n1)CCN(CC(=O)N(C)C)CC2 [Example 836, 2-(7-{5-Chloro-4-[2-(morpholine-4-sulfonyl)-phenylamino]-pyrimidin-2-ylamino}-8-methoxy-1,2,4,5-tetrahydro-benzo[d]azepin-3-yl)-N,N-dimethyl-acetamide] | > 10000 nM | < 100 nM | – | – | –
13 | CC(=O)N1CC2CCC(C1)c1cc(Nc3ncc(Cl)c(N[C@@H]4CCCC[C@H]4NS(C)(=O)=O)n3)ccc12 (stereo partly drawn) [Example 295, N-{(1R,2R)-2-[2-(10-Acetyl-10-aza-tricyclo[6.3.2.0*2,7*]trideca-2,4,6-trien-4-ylamino)-5-chloro-pyrimidin-4-ylamino]-cyclohexyl}-methanesulfonamide] | – | – | 100 to 1000 nM | < 100 nM | –
14 | CCN1CC(=O)N(CC)c2cc(Nc3ncc(Cl)c(N[C@@H]4CCCC[C@H]4NS(C)(=O)=O)n3)c(OC)cc2C1 [Example 736, N,N-{(1R,2R)-2-[5-Chloro-2-(1,4-diethyl-7-methoxy-2-oxo-2,3,4,5-tetrahydro-1H-benzo[e][1,4]diazepin-8-ylamino)-pyrimidin-4-ylamino]-cyclohexyl}-methanesulfonamide] | > 10000 nM | 100 to 1000 nM | – | – | –
15 | COCC(COC)N1CCc2cc(Nc3ncc(Cl)c(N[C@H]4[C@@H](C(N)=O)[C@@H]5C=C[C@H]4C5)n3)c(OC)cc2CC1 [Example 815, (1S,2S,3R,4R)-3-{5-Chloro-2-[8-methoxy-3-(2-methoxy-1-methoxymethyl-ethyl)-2,3,4,5-tetrahydro-1H-benzo[d]azepin-7-ylamino]-pyrimidin-4-ylamino}-bicyclo[2.2.1]hept-5-ene-2-carboxylic acid amide] | > 10000 nM | < 100 nM | – | – | –
16 | CCN1C(=O)CCCc2c(OC)ccc(Nc3ncc(Cl)c(Nc4ccc(N5CCOCC5)cc4OC)n3)c21 [Example 125, 9-[5-Chloro-4-(2-methoxy-4-morpholin-4-yl-phenylamino)-pyrimidin-2-ylamino]-1-ethyl-6-methoxy-1,3,4,5-tetrahydro-benzo[b]azepin-2-one] | – | – | > 10000 nM | < 100 nM | –
17 | CNC(=O)c1ccccc1Nc1nc(Nc2ccc3c(c2)N(C)CCN(C(=O)N(C)C)C3)ncc1Cl [Example 489, 8-[5-Chloro-4-(2-methylcarbamoyl-phenylamino)-pyrimidin-2-ylamino]-1-methyl-1,2,3,5-tetrahydro-benzo[e][1,4]diazepine-4-carboxylic acid dimethylamide] | – | – | < 100 nM | < 100 nM | –
18 | CNC(=O)c1cccc(F)c1Nc1nc(Nc2ccc3c(c2)N(C(C)C)C(=O)CCC3)ncc1Cl [Example 1474, 2-[5-Chloro-2-(1-isopropyl-2-oxo-2,3,4,5-tetrahydro-1H-benzo[b]azepin-8-ylamino)-pyrimidin-4-ylamino]-3-fluoro-N-methyl-benzamide] | – | – | – | – | IC50 [1, 7]: 100 to 1000 nM; IC50 [2, 8]: < 100 nM
19 | N-((1R,2R)-2-{5-Chloro-2-[7-(2,2,2-trifluoro-ethylamino)-6,7,8,9-tetrahydro-5H-benzocyclohepten-2-ylamino]-pyrimidin-4-ylamino}-cyclohexyl)-methanesulfonamide [Example 688] | > 10000 nM | 100 to 1000 nM | – | – | –
20 | CCN1CCc2ccc(Nc3ncc(Cl)c(Nc4cc(Cl)ccc4C(=O)NC)n3)cc2CC1 [Example 33, 4-Chloro-2-[5-chloro-2-(3-ethyl-2,3,4,5-tetrahydro-1H-benzo[d]azepin-7-ylamino)-pyrimidin-4-ylamino]-N-methyl-benzamide] | – | – | < 100 nM | < 100 nM | –
21 | CCN(CCO)Cc1cc(Nc2nc(Nc3ccc4c(c3)N(CC)CCN(CC)C4)ncc2Cl)ccc1F [Example 734, 2-({5-[5-Chloro-2-(1,4-diethyl-2,3,4,5-tetrahydro-1H-benzo[e][1,4]diazepin-8-ylamino)-pyrimidin-4-ylamino]-2-fluoro-benzyl}-ethyl-amino)-ethanol] | > 10000 nM | < 100 nM | – | – | –
22 | CNS(=O)(=O)c1ccccc1Nc1nc(Nc2ccc3c(c2)C2CC3CN(C(C)C)C2)ncc1Cl (stereo not shown) [Example 159, 2-[5-Chloro-2-(10-isopropyl-10-aza-tricyclo[6.3.1.0*2,7*]dodeca-2,4,6-trien-4-ylamino)-pyrimidin-4-ylamino]-N-methyl-benzenesulfonamide] | – | – | 100 to 1000 nM | < 100 nM | –
23 | CNC(=O)c1cccc(Nc2nc(Nc3ccc4c(c3)CCCC(=O)N4C)ncc2Cl)c1 [Example 668, 3-[5-Chloro-2-(1-methyl-2-oxo-2,3,4,5-tetrahydro-1H-benzo[b]azepin-7-ylamino)-pyrimidin-4-ylamino]-N-methyl-benzamide] | 1000 to 10000 nM | 100 to 1000 nM | – | – | –
